Assay: XPS phosphorus over metal ratio (surface coverage) on Titanium grade 23 dental implants
Assay type: physicochemical
Settings: sonicated 65° C. 10 min, Metal = Ti2p + Al2s + V2p
Method: A Titanium grade 23 dental implant (bulk composition atomic concentration Titanium 90%, Aluminum 6%, Vanadium 4%; length 11.0 mm, diameter 3.75 mm) was provided with a roughened surface, produced by sand blasting and acid etching according to industry standards. The dental implant was immersed in 40 ml of a 2% (v/v) aqueous solution of deconex 15 PF-x (which is a phosphate free, potassium hydroxide based standard cleaning agent). The solution was placed in an ultrasonic bath (output frequency 30 kHz) and sonicated at 65° C. for 30 min. The implant was removed from the cleaning agent solution and rinsed with water as follows: 2 times with 40 ml, swirling at room temperature; 4 times with 40 ml, sonicating for 2 min at 65° C.; 1 time with 40 ml, swirling at room temperature. The implant was then placed into 5 ml of a 0.7 mM aqueous solution of 1,1,3,3-propane tetraphosphonic acid. The solution was placed in the ultrasonic bath and sonicated at 65° C. for 10 min. The implant was rinsed with water as follows: 2 times with 10 ml, swirling at room temperature; 1 time with 10 ml, sonicating for 2 min at 65° C.; 1 time with 10 ml, swirling at room temperature. The dental implant was dried in a desiccator over P2O5 and under vacuum (ca 20 mbar) for at least 3 hours.
Ten Titanium grade 23 dental implants (bulk composition atomic concentration Titanium 90%, Aluminum 6%, Vanadium 4%; length 11.0 mm, diameter 3.75 mm) were provided with a roughened surface, produced by sand blasting and acid etching according to industry standards. The dental implants were immersed in 400 ml of a 2% (v/v) aqueous solution of deconex 15 PF-x (which is a phosphate free, potassium hydroxide based standard cleaning agent). The solution was placed in an ultrasonic bath (output frequency 30 kHz) and sonicated at 65° C. for 30 min. The implants were removed from the cleaning agent solution and rinsed with water as follows: 2 times with 400 ml, swirling at room temperature; 4 times with 400 ml, sonicating for 2 min at 65° C.; 1 time with 400 ml, swirling at room temperature. The implants were then placed one after the other into 5 ml of a 0.7 mM aqueous solution of 1,1,3,3-propane tetraphosphonic acid. The solution was placed in the ultrasonic bath and sonicated at 65° C. for 10 min. After the treatment with the phosphonic acid, each implant was rinsed with water as follows: 1 time with 10 ml, swirling at room temperature; 1 time with 10 ml, sonicating for 2 min at 65° C.; 1 time with 10 ml, swirling at room temperature. The dental implants were dried in a desiccator over P2O5 and under vacuum (ca 30 mbar) for at least 3 hours.
A Titanium grade 23 dental implant (bulk composition atomic concentration Titanium 90%, Aluminum 6%, Vanadium 4%; length 13.0 mm, diameter 3.75 mm) was provided with a roughened surface, produced by sand blasting and acid etching according to industry standards. The implant was immersed in 13 ml of a 0.7 mM aqueous solution of 1,1,3,3-propane tetraphosphonic acid. The solution was placed in an ultrasonic bath and sonicated at room temperature for 10 min. The implant was rinsed with water as follows: 1 time with 10 ml, swirling at room temperature; 2 times with 10 ml, sonicating for 1 min at room temperature. The dental implant was dried in a heating oven (ca 70° C.) for at least 1 hour. […]
Following the surface treatment with one phosphonic acid compound as described in Examples 1 to 7 the samples were analyzed by X-ray photoelectron spectroscopy (XPS). […]

Phosphorus/Metal (0.7 mM): 0.19
Phosphorus/Metal (2 mM): 0.18
Phosphorus/Metal (3.5 mM): 0.17
Phosphorus/Metal (5 mM): 0.18
Phosphorus/Metal (7 mM): 0.18
Compound: O=P(O)(O)C(CC(P(=O)(O)O)P(=O)(O)O)P(=O)(O)O [1,1,3,3-propane tetraphosphonic acid]
